According to US7541020B2, “Aminoalkyl glucosaminide phosphate compounds and their use as adjuvants and immunoeffectors” (priority 1997, dated 2009):
Where “and” joins values, the source holds several entries; their conditions need not be identical. Identical values can stand only once. Like-named read-outs stand apart in the source and are kept apart here.

Legend:
E.G7 (OVA) cells = conditions: s.c. 25 μg OVA in AGP preparation, spleen cells 21 days later
IL-1β = experiment: Cytokine induction in human whole blood ex vivo culture: IL-1β (ELISA); assay type: cell-based; conditions: 4 hr, Table 17
Procedure, shortened: (§1)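 Compounds in 10% EtOH-water added at 1:10 to human whole blood, 4 hr at 37° C with rotation; RPMI-treated controls. After PBS dilution and centrifugation, supernatant TNF-α and IL-1β measured by ELISA.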

tetanus toxoid [1] = conditions: mouse, in vivo, sc
[2] = test system: hepatitis B surface antigen (HBsAg); conditions: for % Cytotoxicity (d16, post 2°): HBsAg + 10 μg AGP-AF intranasally; for % Cytotoxicity (d8, post 3°): intranasal HBsAg + 10 μg AGP-AF
[3] = Fever response in rabbits (pyrogenicity); assay type: in vivo; conditions: for PYROGENICITY Total Rise ° C., 3 rabbits: 10 ug/kg, cumulative rise ≥1.5 degree in three rabbits is considered pyrogenic
Description: The AGP compounds were also evaluated for their tendency to induce a fever response in rabbits. Each compound was formulated in 10% (v/v) ethanol/water solution at 100 mg/ml, then diluted with D5W to the desired concentration. The material was injected at 3 ml/kg body weight into 3 rabbits. The rise in core temperature of the rabbits was recorded.

ovalbumin = experiment: Stimulation of antiovalbumin antibody production; assay type: in vivo, BDF1 female mice; conditions: 50 μg AGP + 50 μg ovalbumin; second immunization day 21; bled 14 days after second injection
Description: BDF1 female mice (8 per group) were immunized with 0.2 ml of emulsions containing 50 μg of the AGPs +50 μg of ovalbumin. A second immunization was administered 21 days post primary. Each mouse was bled 14 days after the second injection.

influenza A/HK/68 [4] = test system: influenza A/HK/68; parameters: species or system ICR mice; conditions: mouse, in vivo
tetanus toxoid [5] = test system: tetanus toxoid; parameters: species or system BFD1 (C57B1/6X DBA/2) female mice; conditions: mouse, in vivo
TNF-α = experiment: Cytokine induction in human whole blood ex vivo culture: TNF-α (ELISA); assay type: cell-based; conditions: 4 hr, Table 17
Procedure, shortened: as §1

influenza A/HK/68 [6] = experiment: Second intranasal influenza vaccine experiment with aqueous AGP and MPL formulations: vaginal, tracheal wash and serum titers, protection; assay type: in vivo, BABL/c mice; conditions: mouse, in vivo
influenza A/HK/68 [7] = assay type: in vivo, ICR mice; conditions: mouse, in vivo
[8] = test system: hepatitis B surface antigen (HBsAg); experiment: Serum anti-HBsAg antibody titers after intranasal HBsAg + AGP-AF (ELISA); assay type: in vivo, BALB/c mice; conditions: for Anti HBsAg Titer^−1 IgG1 / Anti HBsAg Titer^−1 IgG2a: K = 10^3
influenza A/HK/68 [9] = assay type: in vivo, BALB/c mice; conditions: mouse, in vivo
tetanus toxoid [10] = conditions: mouse, in vivo
[11] = test system: hepatitis B surface antigen (HBsAg); experiment: Vaginal wash anti-HBsAg antibody after intranasal HBsAg + AGP-AF; assay type: in vivo, BALB/c mice; conditions: 10 days after the booster immunization; intranasal HBsAg + 10 μg AGP-AF
Excerpt: Vaginal samples were collected 10 days after the booster immunization and assayed for anti-HBsAg antibody.

influenza A/HK/68 [12] = conditions: mouse, in vivo
[13] = test system: hepatitis B surface antigen (HBsAg); experiment: Cytotoxic T-lymphocyte response to HBsAg with AGP in stable emulsion (AGP-SE); conditions: s.c. 2.0 μg HBsAg + 25 μg AGP/SE
influenza A/HK/68 [14] = test system: influenza A/HK/68; parameters: species or system ICR mice; conditions: mouse, in vivo; remark: listed apart in the source
[15] = test system: hepatitis B surface antigen (HBsAg); experiment: Anti-HBsAg antibody titer with AGP-SE (ELISA plates coated with HBsAg or p72 peptide); conditions: sera day 28 post 2°, 25 μg AGP-SE
[16] = day 22 post 2°, HBsAg + 10 μg AGP-AF intranasally
[17] = serum, day 21 post 3°, intranasal HBsAg + 10 μg AGP-AF
[18] = ELISA plates coated with p72 peptide

## N-[(R)-3-Decanoyloxytetradecanoyl]-O-[2-deoxy-4-O-phosphono-2-[(R)-3-decanoyloxytetradecanoylamino]-3-O-[(R)-3-decanoyloxytetradecanoyl]-β-D-glucopyranosyl]-L-serine Triethylammonium Salt [B15]
E.G7 (OVA) cells; E:T 12.5:1
  % Cytotoxicity: 30%
E.G7 (OVA) cells; E:T 25:1
  % Cytotoxicity: 49%
E.G7 (OVA) cells; E:T 50:1
  % Cytotoxicity: 58%
IL-1β; Dosage 100 ng/ml
  IL-1β: 51.6 pg/mL
IL-1β; Dosage 500 ng/ml
  IL-1β: 104 pg/mL
IL-1β; Dosage 1000 ng/ml
  IL-1β: 94.4 pg/mL
IL-1β; Dosage 5000 ng/ml
  IL-1β: 126 pg/mL
IL-1β; Dosage 10,000 ng/ml
  IL-1β: 153 pg/mL
Tetanus toxoid [1]
  Anti-tetanus toxoid IgM T/C: 4.0 and 2.7
  Anti-tetanus toxoid Total Ig T/C: 144.5
  Anti-tetanus toxoid Total Ig Titer: 34,400
  Anti-tetanus toxoid Total IgG T/C: 18.85
  Anti-tetanus toxoid Total IgG Titer: 121,600
[2]; E/T 6.25:1
  % Cytotoxicity (d16, post 2°): 4%
  % Cytotoxicity (d8, post 3°): 16%
[2]; E/T 12.5:1
  % Cytotoxicity (d16, post 2°): 4%
  % Cytotoxicity (d8, post 3°): 25%
[2]; E/T 25:1
  % Cytotoxicity (d16, post 2°): 5%
  % Cytotoxicity (d8, post 3°): 42%
[2]; E/T 50:1
  % Cytotoxicity (d16, post 2°): 13%
  % Cytotoxicity (d8, post 3°): 56%
[3]
  PYROGENICITY Total Rise ° C., 3 rabbits: 3.1 °C
[3]; rabbits
  PY[…]: <0.06 µg/kg
ovalbumin
  Anti-ovalbumin IgG1 T/C: 0.6
  Anti-ovalbumin IgG1 Titer: 950
  Anti-ovalbumin IgG2a T/C: 0.3
  Anti-ovalbumin IgG2a Titer: 113
  Anti-ovalbumin IgG2b T/C: 16.7
  Anti-ovalbumin IgG2b Titer: 3963
  Anti-ovalbumin IgM T/C: 2.3
  Anti-ovalbumin IgM Titer: 438
  Anti-ovalbumin Total Ig T/C: 4.1
  Anti-ovalbumin Total Ig Titer: 925
Influenza A/HK/68 [4]
  Anti-influenza Titer^−1 Total IgG: 6400
  Percent Survival: 50%
Tetanus toxoid [5]
  IgG1 T/C Ratio: 4.1 and 4.5 and 5.5
  IgM T/C: 3.14 and 2.29 and 2.86 and 1.71 and 1.57
  Total Ig T/C: 233.88 and 181.91 and 170.10 and 248.06 and 166.56
  Total Ig T/C Ratio: 3.3 and 5.8 and 5.3
TNF-α; Dosage 100 ng/ml
  TNF-α: 133 pg/mL
TNF-α; Dosage 500 ng/ml
  TNF-α: 183 pg/mL
TNF-α; Dosage 1000 ng/ml
  TNF-α: 209 pg/mL
TNF-α; Dosage 5000 ng/ml
  TNF-α: 280 pg/mL
TNF-α; Dosage 10,000 ng/ml
  TNF-α: 320 pg/mL
Influenza A/HK/68 [6]
  Mucosal IgA Response TW: 11.1
  Mucosal IgA Response VW: 10.9
  Percent Protection: 100%
  Serum IgG Titers: 19.1
  mucosal adjuvant activity (in words): act as mucosal adjuvants causing the production of IgA at two mucosal sites
Influenza A/HK/68 [7]
  Percent Survival: 70%
  Titer^−1 IgG1: 200
  Titer^−1 IgG2a: 3200
  Titer^−1 IgG2b: 6400
  Titer^−1 Total IgG: 3200
[8]; [16]
  Anti HBsAg Titer^−1 IgA: 6,400
  Anti HBsAg Titer^−1 IgG1: 256K
  Anti HBsAg Titer^−1 IgG2a: 500K
[8]; [17]
  Anti HBsAg Titer^−1 IgG1: 2000K
  Anti HBsAg Titer^−1 IgG2a: 2000K
  Anti HBsAg Titer^−1 IgA: 25,600
Influenza A/HK/68 [9]
  Anti-influenza Titer^−1 IgG1: 3200
  Anti-influenza Titer^−1 IgG2a: 3200
  Anti-influenza Titer^−1 IgG2b: 400
  Anti-influenza Titer^−1 Total IgG: 1600
  Percent Survival: 100%
Tetanus toxoid [10]
  Anti-Tetanus Toxoid Titer^−1 Fecal Extract IgG: 50 and 100
  Anti-Tetanus Toxoid Titer^−1 Vaginal Wash IgA: 6400
  Anti-Tetanus Toxoid Titer^−1 Vaginal Wash IgG: 400 and 800
[11]
  Vaginal Wash Anti-HBsAg Titer^−1 IgA: 3200
  Vaginal Wash Anti-HBsAg Titer^−1 IgG: 50

## 2-[(R)-3-Hexanoyloxytetradecanoylamino]ethyl2-Deoxy-4-O-phosphono-3-O-[(R)-3-hexanoyloxytetradecanoyl]-2-[(R)-3-hexanoyloxytetradecanoylamino]-α-D-glucopyranoside Triethylammonium Salt [B31]
Influenza A/HK/68 [12]
  Anti-influenza serum titers IgG: 3200
  Anti-influenza serum titers IgG1: 1600
  Anti-influenza serum titers IgG2a: 400
  Anti-influenza serum titers IgG2b: 1600
  Protection: 70

## N-[(R)-3-Decanoyloxytetradecanoyl]-O-[2-deoxy-4-O-phosphono-2-[(R)-3-decanoyloxytetradecanoylamino]-3-O-[(R)-3-decanoyloxytetradecanoyl]-β-D-glucopyranosyl]-L-serinamide Triethylammonium Salt [B25]
E.G7 (OVA) cells; E:T 12.5:1
  % Cytotoxicity: 43%
E.G7 (OVA) cells; E:T 25:1
  % Cytotoxicity: 55%
E.G7 (OVA) cells; E:T 50:1
  % Cytotoxicity: 65%
Tetanus toxoid [1]
  Anti-tetanus toxoid IgG1 T/C: 2.68
  Anti-tetanus toxoid IgG1 Titer: 576,000
  Anti-tetanus toxoid IgG2a T/C: 1.67
  Anti-tetanus toxoid IgG2a Titer: 8,500
  Anti-tetanus toxoid IgG2b T/C: 3.28
  Anti-tetanus toxoid IgG2b Titer: 94,400
  Anti-tetanus toxoid IgM T/C: 2.0
  Anti-tetanus toxoid IgM Titer: 3,200
  Anti-tetanus toxoid Total IgG T/C: 8.93
  Anti-tetanus toxoid Total IgG Titer: 57,600
[2]; E/T 6.25:1
  % Cytotoxicity (d16, post 2°): 9%
  % Cytotoxicity (d8, post 3°): 8%
[2]; E/T 12.5:1
  % Cytotoxicity (d16, post 2°): 13%
  % Cytotoxicity (d8, post 3°): 13%
[2]; E/T 25:1
  % Cytotoxicity (d16, post 2°): 20%
  % Cytotoxicity (d8, post 3°): 19%
[2]; E/T 50:1
  % Cytotoxicity (d16, post 2°): 36%
  % Cytotoxicity (d8, post 3°): 30%
[3]
  PYROGENICITY Total Rise ° C., 3 rabbits: 4.2 °C
[13]; d16, post 2°, E:T 6.25:1
  % Cytotoxicity: 13%
[13]; d16, post 2°, E:T 12.5:1
  % Cytotoxicity: 20%
[13]; d16, post 2°, E:T 25:1
  % Cytotoxicity: 28%
[13]; d16, post 2°, E:T 50:1
  % Cytotoxicity: 49%
[13]; d17, post 1°, E:T 6.25:1
  % Cytotoxicity: 5%
[13]; d17, post 1°, E:T 12.5:1
  % Cytotoxicity: 9%
[13]; d17, post 1°, E:T 25:1
  % Cytotoxicity: 12%
[13]; d17, post 1°, E:T 50:1
  % Cytotoxicity: 27%
ovalbumin
  Anti-ovalbumin IgG1 T/C: 5.2
  Anti-ovalbumin IgG1 Titer: 8500
  Anti-ovalbumin IgG2a T/C: 0.5
  Anti-ovalbumin IgG2a Titer: 163
  Anti-ovalbumin IgG2b T/C: 5.0
  Anti-ovalbumin IgG2b Titer: 1188
  Anti-ovalbumin IgM T/C: 0.8
  Anti-ovalbumin IgM Titer: 150
  Anti-ovalbumin Total Ig T/C: 1.9
  Anti-ovalbumin Total Ig Titer: 438
Influenza A/HK/68 [14]
  Percent Protection: 100%
  Serum Titers IgG1: 102,400
  Serum Titers IgG2a: 819,200
  Serum Titers IgG2b: ≧819,200
  Serum Titers Total IgG: ≧819,200
  Vaginal Wash Samples IgA Secondary: 1280
  Vaginal Wash Samples IgA Tertiary: 1280
  Vaginal Wash Samples IgG Secondary: 640
  Vaginal Wash Samples IgG Tertiary: 2560
[8]; [16]
  Anti HBsAg Titer^−1 IgA: 3,200
  Anti HBsAg Titer^−1 IgG1: 256K#
  Anti HBsAg Titer^−1 IgG2a: 500K
[8]; [17]
  Anti HBsAg Titer^−1 IgG1: 1000K#
  Anti HBsAg Titer^−1 IgG2a: 1000K
  Anti HBsAg Titer^−1 IgA: 25,600
Influenza A/HK/68 [9]
  Anti-influenza Titer^−1 IgG1: 1600
  Anti-influenza Titer^−1 IgG2a: 6400
  Anti-influenza Titer^−1 IgG2b: 1600
  Anti-influenza Titer^−1 Total IgG: 3200
  Percent Survival: 100%
Tetanus toxoid [10]
  Anti-Tetanus Toxoid Titer^−1 Fecal Extract IgA: 3200 and 6400
  Anti-Tetanus Toxoid Titer^−1 Vaginal Wash IgA: 6400
[15]; ELISA plates coated with HBsAg
  Anti-HBsAg Titer^−1 HBsAg IgG1: 2048K*
  Anti-HBsAg Titer^−1 HBsAg IgG2a: 2048K
[15]; [18]
  Anti-HBsAg Titer^−1 p72-Peptide IgG1: 128K
  Anti-HBsAg Titer^−1 p72-Peptide IgG2a: 64K
[11]
  Vaginal Wash Anti-HBsAg Titer^−1 IgA: 800
  Vaginal Wash Anti-HBsAg Titer^−1 IgG: 100
